According to US20090270350A1, “Pyridinone Pyrazole Urea and Pyrimidinone Pyrazole Urea Derivatives” (PFIZER INC., priority 2006, published 2009):

Compound | melting point [°C]
CNC(=O)c1ccc(C)c(-n2c(C)cc(OCc3ccccc3CNC(=O)Nc3cc(C(C)(C)C)nn3-c3cccc(OCCO)c3)c(Cl)c2=O)c1 [Example 133, 3-{4-[2-(3-{5-tert-butyl-2-[3-(2-hydroxy-ethoxy)-phenyl]-2H-pyrazol-3-yl}-ureidomethyl)-benzyloxy]-3-chloro-6-methyl-2-oxo-2H-pyridin-1-yl}-4,N-dimethyl-benzamide] | 168 to 170
Cc1ccc(C(=O)NCC(O)CO)cc1-n1c(C)cc(OCc2ccccc2CNC(=O)Nc2cc(C(C)(C)C)nn2-c2cccc(OCCO)c2)c(Cl)c1=O (stereo not shown) [Example 134, 3-{4-[2-(3-{5-tert-Butyl-2-[3-(2-hydroxy-ethoxy)-phenyl]-2H-pyrazol-3-yl}-ureidomethyl)-benzyloxy]-3-chloro-6-methyl-2-oxo-2H-pyridin-1-yl}-N-(2,3-dihydroxy-propyl)-4-methyl-benzamide] | 158 to 160
COC(=O)c1ccc(C)c(-n2c(C)cc(OCc3ccccc3CNC(=O)Nc3cc(C(C)(C)C)nn3-c3ccc(O)cc3)c(Cl)c2=O)c1 [Example 135, 3-[4-(2-{3-[5-tert-butyl-2-(4-hydroxy-phenyl)-2H-pyrazol-3-yl]-ureidomethyl}-benzyloxy)-3-chloro-6-methyl-2-oxo-2H-pyridin-1-yl]-4-methyl-benzoic acid methyl ester] | 199 to 200
COC(=O)c1ccc(C)c(-n2c(C)cc(OCc3ccc(F)cc3CNC(=O)Nc3cc(C(C)(C)C)nn3-c3ccc(O)cc3)c(Cl)c2=O)c1 [Example 136, 3-[4-(2-{3-[5-tert-butyl-2-(4-hydroxy-phenyl)-2H-pyrazol-3-yl]-ureidomethyl}-4-fluoro-benzyloxy)-3-chloro-6-methyl-2-oxo-2H-pyridin-1-yl]-4-methyl-benzoic acid methyl ester] | 188 to 190
COC(=O)c1ccc(C)c(-n2c(C)cc(OCc3ccccc3CNC(=O)Nc3cc(C(C)(C)C)nn3-c3ccc(O)c(Cl)c3)c(Cl)c2=O)c1 [Example 137, 3-[4-(2-{3-[5-tert-butyl-2-(3-chloro-4-hydroxy-phenyl)-2H-pyrazol-3-yl]-ureidomethyl}-benzyloxy)-3-chloro-6-methyl-2-oxo-2H-pyridin-1-yl]-4-methyl-benzoic acid methyl ester] | 185 to 186
COC(=O)c1ccc(C)c(-n2c(C)cc(OCc3ccccc3CNC(=O)Nc3cc(C(C)(C)C)nn3-c3ccc(Cl)c(O)c3)c(Cl)c2=O)c1 [Example 138, 3-[4-(2-{3-[5-tert-butyl-2-(4-chloro-3-hydroxy-phenyl)-2H-pyrazol-3-yl]-ureidomethyl}-benzyloxy)-3-chloro-6-methyl-2-oxo-2H-pyridin-1-yl]-4-methyl-benzoic acid methyl ester] | 193 to 195
COC(=O)c1ccc(C)c(-n2c(C)cc(OCc3ccc(F)cc3CNC(=O)Nc3cc(C(C)(C)C)nn3-c3ccc(O)c(Cl)c3)c(Cl)c2=O)c1 [Example 140, 3-[4-(2-{3-[5-tert-butyl-2-(3-chloro-4-hydroxy-phenyl)-2H-pyrazol-3-yl]-ureidomethyl}-4-fluoro-benzyloxy)-3-chloro-6-methyl-2-oxo-2H-pyridin-1-yl]-4-methyl-benzoic acid methyl ester] | 197 to 200
CNC(=O)c1ccc(C)c(-n2c(C)cc(OCc3ccccc3CNC(=O)Nc3cc(C(C)(C)C)nn3-c3ccc(O)c(Cl)c3)c(Cl)c2=O)c1 [Example 153, 3-[4-(2-{3-[5-tert-butyl-2-(3-chloro-4-hydroxy-phenyl)-2H-pyrazol-3-yl]-ureidomethyl}-benzyloxy)-3-chloro-6-methyl-2-oxo-2H-pyridin-1-yl]-4,N-dimethyl-benzamide] | 201 to 203
Cc1ccc(C(=O)NCCO)cc1-n1c(C)cc(OCc2ccccc2CNC(=O)Nc2cc(C(C)(C)C)nn2-c2ccc(O)c(Cl)c2)c(Cl)c1=O [Example 154, 3-[4-(2-{3-[5-tert-butyl-2-(3-chloro-4-hydroxy-phenyl)-2H-pyrazol-3-yl]-ureidomethyl}-benzyloxy)-3-chloro-6-methyl-2-oxo-2H-pyridin-1-yl]-N-(2-hydroxy-ethyl)-4-methyl-benzamide] | 195 to 196
COCCNC(=O)c1ccc(C)c(-n2c(C)cc(OCc3ccccc3CNC(=O)Nc3cc(C(C)(C)C)nn3-c3ccc(O)c(Cl)c3)c(Cl)c2=O)c1 [Example 155, 3-[4-(2-{3-[5-tert-butyl-2-(3-chloro-4-hydroxy-phenyl)-2H-pyrazol-3-yl]-ureidomethyl}-benzyloxy)-3-chloro-6-methyl-2-oxo-2H-pyridin-1-yl]-N-(2-methoxy-ethyl)-4-methyl-benzamide] | 179 to 180
Cc1ccc(C(=O)NCC(O)CO)cc1-n1c(C)cc(OCc2ccccc2CNC(=O)Nc2cc(C(C)(C)C)nn2-c2ccc(O)c(Cl)c2)c(Cl)c1=O (stereo not shown) [Example 157, 3-[4-(2-{3-[5-tert-butyl-2-(3-chloro-4-hydroxy-phenyl)-2H-pyrazol-3-yl]-ureidomethyl}-benzyloxy)-3-chloro-6-methyl-2-oxo-2H-pyridin-1-yl]-N-(2,3-dihydroxy-propyl)-4-methyl-benzamide] | 173 to 175

Next, values leading:

melting point [°C] | Compound
181 to 182 | Cc1ccc(C(=O)NCCN(C)C)cc1-n1c(C)cc(OCc2ccccc2CNC(=O)Nc2cc(C(C)(C)C)nn2-c2ccc(O)c(Cl)c2)c(Cl)c1=O [Example 158, 3-[4-(2-{3-[5-tert-butyl-2-(3-chloro-4-hydroxy-phenyl)-2H-pyrazol-3-yl]-ureidomethyl}-benzyloxy)-3-chloro-6-methyl-2-oxo-2H-pyridin-1-yl]-N-(2-dimethylamino-ethyl)-4-methyl-benzamide]
228 to 230 | Cc1ccc(C(=O)NCC(N)=O)cc1-n1c(C)cc(OCc2ccccc2CNC(=O)Nc2cc(C(C)(C)C)nn2-c2ccc(O)c(Cl)c2)c(Cl)c1=O [Example 160, 3-[4-(2-{3-[5-tert-butyl-2-(3-chloro-4-hydroxy-phenyl)-2H-pyrazol-3-yl]-ureidomethyl}-benzyloxy)-3-chloro-6-methyl-2-oxo-2H-pyridin-1-yl]-N-carbamoylmethyl-4-methyl-benzamide]
201 to 203 | CNC(=O)c1ccc(C)c(-n2c(C)cc(OCc3ccccc3CNC(=O)Nc3cc(C(C)(C)C)nn3-c3ccc(Cl)c(O)c3)c(Cl)c2=O)c1 [Example 161, 3-[4-(2-{3-[5-tert-butyl-2-(4-chloro-3-hydroxy-phenyl)-2H-pyrazol-3-yl]-ureidomethyl}-benzyloxy)-3-chloro-6-methyl-2-oxo-2H-pyridin-1-yl]-4,N-dimethyl-benzamide]
196 to 197 | Cc1ccc(C(=O)NCCO)cc1-n1c(C)cc(OCc2ccccc2CNC(=O)Nc2cc(C(C)(C)C)nn2-c2ccc(Cl)c(O)c2)c(Cl)c1=O [Example 162, 3-[4-(2-{3-[5-tert-butyl-2-(4-chloro-3-hydroxy-phenyl)-2H-pyrazol-3-yl]-ureidomethyl}-benzyloxy)-3-chloro-6-methyl-2-oxo-2H-pyridin-1-yl]-N-(2-hydroxy-ethyl)-4-methyl-benzamide]
182 to 183 | COCCNC(=O)c1ccc(C)c(-n2c(C)cc(OCc3ccccc3CNC(=O)Nc3cc(C(C)(C)C)nn3-c3ccc(Cl)c(O)c3)c(Cl)c2=O)c1 [Example 163, 3-[4-(2-{3-[5-tert-butyl-2-(4-chloro-3-hydroxy-phenyl)-2H-pyrazol-3-yl]-ureidomethyl}-benzyloxy)-3-chloro-6-methyl-2-oxo-2H-pyridin-1-yl]-N-(2-methoxy-ethyl)-4-methyl-benzamide]
